Among the data in ChEMBL document CHEMBL5150065, “Design, synthesis, and bioevaluation of imidazo [1,2-a] pyrazine derivatives as tubulin polymerization inhibitors with potent anticancer activities” (Bioorg Med Chem, 2022) are IC50 and Activity values, retold here.

For one assay, the system named is HepG2. As to the kind of experiment: Antiproliferative activity against human HepG2 cells assessed as inhibition of cell growth incubated for 48 hrs by MTT assay. Format: functional, cell-based. Conditions: HepG2, 48 h. In general terms: Tetrazolium dyes change colour on reduction, which living cells bring about.
The subject of assay [1] is HCT-116. As to the kind of experiment: Antiproliferative activity against human HCT-116 cells assessed as inhibition of cell growth incubated for 48 hrs by MTT assay. It counts as functional, cell-based. Conditions: HCT-116, 48 h.
The subject of a further assay is MDA-MB-231. As to the kind of experiment: Antiproliferative activity against human MDA-MB-231 cells assessed as inhibition of cell growth incubated for 48 hrs by MTT assay. Format: functional, cell-based. The conditions noted are these: MDA-MB-231, 48 h.
A further assay has as its system A549. As to the kind of experiment: Antiproliferative activity against human A549 cells assessed as inhibition of cell growth incubated for 48 hrs by MTT assay. Format: functional, cell-based. Conditions: A549, 48 h.
Assay [2] has as its system HCT-116. As to the kind of experiment: Induction of cell cycle arrest in human HCT-116 cells assessed as S phase cells at 20 nM measured after 48 hrs by propidium iodide/RNase staining based flow cytometry analysis (reference value: […] %). Format: functional. In general terms: In flow cytometry, cells or beads pass a laser one at a time.
Assay [3] deals with HCT-116. As to the kind of experiment: Induction of cell cycle arrest in human HCT-116 cells assessed as G1 phase cells at 20 nM measured after 48 hrs by propidium iodide/RNase staining based flow cytometry analysis (reference value: 61.51 %). It counts as functional.
The test system of assay [4] is HCT-116. As to the kind of experiment: Induction of cell cycle arrest in human HCT-116 cells assessed as increase in G2/M phase cells at 20 nM measured after 48 hrs by propidium iodide/RNase staining based flow cytometry analysis (reference value: […] %). It counts as functional.

A word on the IC50: it is the concentration that gives 50% inhibition. Regarding `COc1cc(-c2nccn3cc(-c4ccc(C)cc4)nc23)cc(OC)c1OC`, the IC50 with HepG2 came to 160 nM; in the assay with HCT-116 [1] it was 74 nM; with MDA-MB-231, 53 nM; in the assay on A549, 135 nM.

As to `COc1cc(C(=O)c2cn3c(C(C)C)cccc3n2)cc(OC)c1OC`, the IC50 with HepG2, with HCT-116 [1], with MDA-MB-231 and with A549 was more than 10000 nM throughout.

Take `COc1ccc(-c2cn3ccnc(-c4cc(OC)c(OC)c(OC)c4)c3n2)cc1`: the IC50 with HepG2 was 205 nM; with HCT-116 [1] it was 191 nM; in the assay with MDA-MB-231, 105 nM; in the assay with A549 it was 457 nM.

As for `COc1ccn2cc(C(=O)c3cc(OC)c(OC)c(OC)c3)nc2c1`, the IC50 with HepG2 was 4140 nM; in the assay with HCT-116 [1], 6520 nM; with MDA-MB-231, more than 10000 nM; with A549, more than 10000 nM.

In the case of `COc1cc(-c2nccn3cc(-c4ccc(F)cc4)nc23)cc(OC)c1OC`, the IC50 with HepG2 stood at 217 nM; in the assay with HCT-116 [1], 263 nM; with MDA-MB-231 it was 401 nM; in the assay with A549, 137 nM.

Turning to `COc1cc(-c2nccn3cc(-c4ccc(N)cc4)nc23)cc(OC)c1OC`, the IC50 in the assay with HepG2 was found to be 252 nM; in the assay with HCT-116 [1], 158 nM; in the assay on MDA-MB-231, 294 nM; in the assay with A549, 287 nM.

Regarding `COc1cc(-c2nccn3cc(-c4ccc([N+](=O)[O-])cc4)nc23)cc(OC)c1OC`, the IC50 in the assay with HepG2, in the assay with HCT-116 [1], in the assay with MDA-MB-231 and in the assay on A549 was more than 10000 nM throughout.

For the compound `COc1cc(-c2nccn3cc(-c4ccc(O)cc4)nc23)cc(OC)c1OC`, the IC50 in the assay with HepG2 was 823 nM; in the assay with HCT-116 [1] it was 901 nM; with MDA-MB-231, more than 10000 nM; in the assay on A549, more than 10000 nM.

As to `COc1cc(C(=O)c2cn3ccnc(-c4ccc5[nH]ccc5c4)c3n2)cc(OC)c1OC`, the IC50 in the assay on HepG2 was more than 10000 nM; with HCT-116 [1], 689 nM; in the assay on MDA-MB-231, more than 10000 nM; in the assay on A549, more than 10000 nM.

On to `COc1ccc(-c2cn3ccnc(-c4cc(OC)c(OC)c(OC)c4)c3n2)cc1N`, for which the IC50 with HepG2 came to 123 nM; in the assay with HCT-116 [1] it was 122 nM; in the assay on MDA-MB-231 it was 111 nM; with A549 it was 309 nM.

With `COc1cc(C(=O)c2cn3ccnc(-c4ccc(C)cc4)c3n2)cc(OC)c1OC`, the IC50 with HepG2 is more than 10000 nM; in the assay on HCT-116 [1], more than 10000 nM; with MDA-MB-231, more than 10000 nM; with A549, 7900 nM.

As to `COc1cc(C(=O)c2cn3cc(Cl)cc(C(F)(F)F)c3n2)cc(OC)c1OC`, the IC50 with HepG2, in the assay with HCT-116 [1], in the assay on MDA-MB-231 and in the assay on A549 was more than 10000 nM each time.

Take `COc1cc(-c2nccn3cc(-c4ccccc4)nc23)cc(OC)c1OC`: the IC50 in the assay on HepG2 came out at 267 nM; in the assay with HCT-116 [1], 266 nM; with MDA-MB-231, 364 nM; in the assay on A549 it was 378 nM.

As to `COc1cc(C(=O)c2cn3ccnc(-c4ccc(F)cc4)c3n2)cc(OC)c1OC`, the IC50 in the assay on HepG2, with HCT-116 [1], with MDA-MB-231 and with A549 was more than 10000 nM throughout.

Consider `COc1ccc(-c2cn3ccnc(-c4cc(OC)c(OC)c(OC)c4)c3n2)cc1O`, for which the IC50 is 87 nM in the assay with HepG2, 74 nM with HCT-116 [1], more than 10000 nM in the assay with MDA-MB-231 and more than 10000 nM with A549.

With `COc1cc(C(=O)c2cn3ccc(C)cc3n2)cc(OC)c1OC`, the IC50 in the assay on HepG2 is 6700 nM; in the assay with HCT-116 [1], 3060 nM; with MDA-MB-231, 9280 nM; in the assay on A549, more than 10000 nM.

As to `COc1cc(-c2nccn3cc(-c4ccc(Cl)cc4)nc23)cc(OC)c1OC`, the IC50 in the assay on HepG2 was found to be 475 nM; with HCT-116 [1], 351 nM; with MDA-MB-231, 2090 nM; in the assay on A549, 7290 nM.

As to `COc1ccc(-c2cn3ccnc(-c4cc(OC)c(OC)c(OC)c4)c3n2)cc1[N+](=O)[O-]`, the IC50 with HepG2, with HCT-116 [1], with MDA-MB-231 and in the assay with A549 was more than 10000 nM throughout.

As to `COc1cc(C(=O)c2cn3ccc(C)c([N+](=O)[O-])c3n2)cc(OC)c1OC`, the IC50 with HepG2, in the assay on HCT-116 [1], in the assay with MDA-MB-231 and in the assay on A549 was more than 10000 nM in each case.

For the compound `COc1cc2c(c(OC)c1OC)-c1ccc(OC)c(=O)cc1[C@@H](NC(C)=O)CC2` [COLCHICINE], the Activity in the assay on HCT-116 [2] is on record as 15.12%; in the assay on HCT-116 [3] it was 24.07%; with HCT-116 [4] it was 60.81%. Further, the IC50 in the assay on HepG2 was 54 nM; with HCT-116 [1], 11 nM; with MDA-MB-231, 176 nM; with A549, 184 nM.

With `COc1cc(C(=O)c2cn3cc(Br)nc(Cl)c3n2)cc(OC)c1OC`, the IC50 in the assay with HepG2 came to 5120 nM; in the assay with HCT-116 [1] it was 1620 nM; with MDA-MB-231 it was 6760 nM; with A549 it was 8260 nM.

For the compound `COc1cc(-c2nccn3cc(-c4ccc(C(F)(F)F)cc4)nc23)cc(OC)c1OC`, the IC50 in the assay with HepG2 was 2630 nM; in the assay with HCT-116 [1], more than 10000 nM; with MDA-MB-231 it was more than 10000 nM; in the assay on A549, more than 10000 nM.

As to `COc1cc(C(=O)c2cn3ccc(C(F)(F)F)cc3n2)cc(OC)c1OC`, the IC50 in the assay with HepG2, with HCT-116 [1], with MDA-MB-231 and in the assay with A549 was more than 10000 nM in each case.

`COc1cc(C(=O)c2cn3ccc(F)cc3n2)cc(OC)c1OC`: the IC50 in the assay on HepG2, in the assay with HCT-116 [1], with MDA-MB-231 and in the assay with A549 was more than 10000 nM in each case.

For `COc1cc(C(=O)c2cn3ccnc(-c4ccccc4)c3n2)cc(OC)c1OC`, the IC50 with HepG2 is more than 10000 nM; with HCT-116 [1] it was 1940 nM; in the assay on MDA-MB-231, more than 10000 nM; in the assay with A549 it was 3940 nM.
